Earlier results in patent publication US20190224051A1, “ETNESS INDICATOR WITH HARDENERS AND CRYSTALLIZERS” (The Procter & Gamble Company, priority 2018, published 2019).

Details: Table 2, stabilizers

## O=P(O)(O)OP(=O)(O)O [Pyrophosphoric Acid]
  pKa (1): 1.5
  pKa (2): 2.4
  pKa (4): 9.2
